Assay results as given in patent US7115574B2, “System and method for support legacy operating system booting in a legacy-free system” (priority 2001, dated 2006).

What was measured:
[1] = Lipton and Catania, Immunol. Today 1997; cited from earlier work
[2] = system: edema caused by intradermal injection of recombinant human IL-1β in the mouse ear; test: IL-1β-induced ear edema with centrally administered α-MSH and receptor antagonists; assay type: in vivo, BALB/c mice; conditions: α-MSH(1-13) given centrally with propranolol injected centrally
Procedure: See Macaluso, A., McCoy, D., Ceriani, G., Watanabe, T., Biltz, J., Catania, A., and Lipton, J. M., Anti-inflammatory Influences of a-MSH Molecules: Central Neurogenic and Peripheral Actions, 14(4), J. of Neuroscience 2377-2382 (1994). Female BALB/c mice (Simonsen Laboratories, Gilroy, Calif.), 7-8 weeks old, were housed at 23-25° C. in groups not exceeding five animals per cage [28 cm (L)×18 cm (W)×13 cm (H)]. Before the experiments they were acclimatized for not less than 1 week before experimentation to standard lighting and temperature conditions with food and water freely available.
Mice were anesthetized with 10% pentobarbital sodium solution (1 mg/mouse, 50 mg/ml, Nembutal sodium solution; Abbott Laboratories, North Chicago, Ill.). Baseline ear thickness measurements were taken with a spring-loaded micrometer (Swiss Precision Instruments, Los Angeles, Calif.). Ear thickness was expressed in centimeters and was measured at least twice at each time point. The average thickness of unstimulated ears was […]. Inflammation was induced by injecting 20 μl of recombinant human IL-1β (1500 U; Genzyme, Cambridge, Mass.) directly into the skin (intradermally) of one ear of each mouse using a 28 gauge needle (Hiltz et al., 1992). Measures of ear thickness were repeated 4 and 6 hr later, while the mice were under sodium pentobarbital anesthesia.
Several agents were administered at the time of ear challenge to pharmacologically block certain receptors: atropine (Sigma Chemical Co.; 150 μg i.p.), a muscarinic receptor blocker that acts on autonomic end-organ receptors, was chosen because of links between inflammation and modulation of pain and the finding that muscarinic antagonists increase pain threshold (Hartvig et al., 1989); phentolamine (Sigma; 150 μg i.p.) an agent that competes for occupancy of α-adrenergic receptors; propranolol (Sigma; 150 μg, i.p.; 30 μg, i.c.v.), a nonspecific competitive antagonist for β-adrenergic receptors.
Because of the size of the experiments and the requirement for several shipments of animals over time, several experiments were performed, each with complete treatment and control groups drawn from the same shipment of mice. Omnibus analysis of variance techniques (Dynastat, Washington, D.C.) were used to test overall differences among group means. Tukey's protected t test was used to compare individual means. Probability values of <0.05 were considered significant.

[3] = system: inflammation induced in the ear by picryl chloride application; test: Picryl chloride-induced ear swelling; assay type: in vivo, BALB/C mice; conditions: for % Inhibition 3 h: 3 h after picryl chloride; for % Inhibition 6 h: 6 h after picryl chloride
Procedure: Hiltz, M. E., Catania, A., Lipton, J. M., Anti-Inflammatory Activity of aα-MSH (11-13) Analogs: Influence of Alteration in Stereochemistry, 12 Peptides 767 (1981). […] Female BALB/C mice (Simonsen Laboratories), 7 weeks old, were housed at 23-25° C. in groups of no more than 5 per cage [28 cm (L)×18 cm (W)×13 cm (H)]. They were allowed to acclimatize to standard lighting and temperature conditions for at least 1 week, with food and water available ad lib, before the experiment began. Five to ten animals were randomly assigned to each treatment group each test day, and all experiments were repeated at least twice to confirm reproducibility. To reduce error due to slight differences in responses to the irritant of animals from different shipments, tests of each agent were performed as separate experiments in which experimental and control animals were drawn from the same shipment.
In the experiments each animal was anesthetized with 1 mg of pentobarbital sodium solution ([…], Nembutal, Abbott Laboratories, Abbott park, Ill.). Baseline ear thickness was measured for both ears with a spring-loaded micrometer (Swiss Precision Instruments, Los Angeles, Calif.). Ear thickness was expressed in units of 10^−3 cm; the average thickness of unstimulated ears was approximately 25-30×10^−3 cm. After baseline measurements were taken, one of six solutions was injected IP. […] The doses of the tripeptides were 10 μg (2.6×.10^−8 M), 20 μg (5.2×.10^−8 M), 40 μg (1.04×.10^−7 M), and 80 μg (2.08×.10^−7 M). Immediately after saline or α-MSH injection, a micropipette was used to coat both sides of each ear with 10 μl […] of a 0.5% picryl chloride (Polysciences, Warrington, Pa.) solution in acetone.
Ear thickness was remeasured 3 and 6 h after picryl chloride application. Swelling was determined by subtracting baseline thickness from the measurements for each ear at 3 and 6 h. The differences for both ears were then averaged for the final analysis.
Repeated-measure ANOVA techniques were used to determine if there was an overall difference among group data for each peptide tested in separate experiments. In those cases in which the ANOVA yielded significant results, Dunnett's test was then used to compare the effects of peptide doses with control (saline) data for each of the two time periods, 3 and 6 h.

C. albicans = test: Horse serum-induced germ tube formation (germination) of C. albicans; assay type: cell-based; conditions: 10^−6M, 60 minutes at 37° C. after horse serum induction
Procedure: C. albicans from stationary phase cultures were washed twice with distilled water and suspended in HBSS to a final concentration of 2×10^6/ml. Hyphal growth was induced by addition of 10% inactivated horse serum (GIBCO/BRL, Great Britain) to yeast incubated for 45 minutes at 37° C. with continuous shaking. Horse serum was removed by washing cells twice with HBSS and incubation was continued for 60 minutes at 37° C. in the presence of α-MSH(1-13) (SEQ ID NO: 3), (6-13) (SEQ ID NO: 2) or (11-13) (SEQ ID NO: 1) at a concentration of 10^−6M with continuous shaking. The percentage of filamentous cells was evaluated under a light microscope with the aid of hemocytometer. Experiments were run in triplicate and at least 200 cells were scored. Photomicrographs were taken with a MC100 camera attached to an Axioskop Zeiss microscope.

Substance | toxicity [1] | inhibition of ear edema by α-MSH ([2]; 4 hr) [%] | inhibition of ear edema by α-MSH ([2]; 6 hr) [%] | % Inhibition 3 h ([3]; 10 μg IP) [%] | % Inhibition 6 h ([3]; 10 μg IP) [%] | % Inhibition 3 h ([3]; 20 μg IP) [%] | % Inhibition 6 h ([3]; 20 μg IP) [%] | % Inhibition 3 h ([3]; 40 μg IP) [%] | % Inhibition 6 h ([3]; 40 μg IP) [%] | % Inhibition 3 h ([3]; 80 μg IP) [%] | % Inhibition 6 h ([3]; 80 μg IP) [%] | overall effect on inflammation (ANOVA) ([3]; 10-80 μg IP, 3 and 6 h) | reduction in the number of filamentous cells / inhibition of germ tube formation (C. albicans) | reduction in the number of filamentous cells / inhibition of germ tube formation (C. albicans; listed as tripeptide)
SYSMEHFRWGKPV [α-MSH(1-13)] | very low toxicity | 36 | 32 |  |  |  |  |  |  |  |  |  |  | 
Ac-Lys-Pro-Val-NH2 [α-MSH(11-13)] |  |  |  | 26 | 25 | 21 | 19 | 33 | 26 | 50 | 42 | inhibited acute inflammation | approximately 56% | 54-58%
